Assay results: article PMC12217109, “Development of novel benzamide class I selective lysine deacetylase inhibitors as potent anticancer agents” (Journal of Enzyme Inhibition and Medicinal Chemistry, 2025)

Experiments:
HeLa nuclear KDACs = experiment: Fluor-de-Lys HDAC fluorometric activity assay with HeLa nuclear extract; type: biochemical
Description: Total zinc-dependent KDAC (classes I, II and IV) activity was measured using the Fluor-de-Lys^TM HDAC fluorometric activity assay kit (BioMol, Exeter, UK), as per manufacturers protocol. Briefly, HeLa nuclear extract, potential inhibitor (5 nM–20 μM) and assay buffer were incubated in a 96-well fluorometric plate at 37 °C for 15 min. Acetylated substrate (100 μM) was added and the mixture incubated at 37 °C for a further 20 min. The developer was added and the mixture incubated at 37 °C for a further 15 min. Fluorescence was measured using a microplate reader (λex = 360 nm, λem = 460 nm). Percentage KDAC activity and thus KDAC inhibition was determined by quantification of fluorescence obtained in the presence versus absence of the respective inhibitor.

786-0 = experiment: NCI-60 cytotoxicity screen; type: cell-based; settings: Homo sapiens, NCI-60, 48 h, renal
Source text: (§1) Compounds 3–7 were submitted to the US National Cancer Institute (NIH, Bethesda, Maryland) for screening against the NCI-60 panel of human cancer cell lines, as per standard protocol.

A549 = experiment: NCI-60 cytotoxicity screen; type: cell-based; settings: Homo sapiens, NCI-60, 48 h, NSCLC
Source text: as §1

ACHN = experiment: NCI-60 cytotoxicity screen; type: cell-based; settings: Homo sapiens, NCI-60, 48 h, renal
Source text: as §1

BT 549 = experiment: NCI-60 cytotoxicity screen; type: cell-based; settings: Homo sapiens, NCI-60, 48 h, breast
Source text: as §1

CAKI-1 = experiment: NCI-60 cytotoxicity screen; type: cell-based; settings: Homo sapiens, NCI-60, 48 h, renal
Source text: as §1

COLO205 = experiment: NCI-60 cytotoxicity screen; type: cell-based; settings: Homo sapiens, COLO 205; NCI-60, 48 h, colon
Source text: as §1

DU-145 = experiment: NCI-60 cytotoxicity screen; type: cell-based; settings: Homo sapiens, NCI-60, 48 h, prostate
Source text: as §1

EKVX = experiment: NCI-60 cytotoxicity screen; type: cell-based; settings: Homo sapiens, NCI-60, 48 h, NSCLC
Source text: as §1

H23 = experiment: NCI-60 cytotoxicity screen; type: cell-based; settings: Homo sapiens, NCI-60, 48 h, NSCLC
Source text: as §1

H460 = experiment: NCI-60 cytotoxicity screen; type: cell-based; settings: Homo sapiens, NCI-60, 48 h, NSCLC
Source text: as §1

H522 = experiment: NCI-60 cytotoxicity screen; type: cell-based; settings: Homo sapiens, NCI-60, 48 h, NSCLC
Source text: as §1

HCT116 = experiment: NCI-60 cytotoxicity screen; type: cell-based; settings: Homo sapiens, HCT-116; NCI-60, 48 h, colon
Source text: as §1

HCT15 = experiment: NCI-60 cytotoxicity screen; type: cell-based; settings: Homo sapiens, HCT-15; NCI-60, 48 h, colon
Source text: as §1

HL-60 = experiment: NCI-60 cytotoxicity screen; type: cell-based; settings: Homo sapiens, NCI-60, 48 h, leukaemia
Source text: as §1

HOP-62 = experiment: NCI-60 cytotoxicity screen; type: cell-based; settings: Homo sapiens, NCI-60, 48 h, NSCLC
Source text: as §1

HS 578 T = experiment: NCI-60 cytotoxicity screen; type: cell-based; settings: Homo sapiens, NCI-60, 48 h, breast
Source text: as §1

IGROV-1 = experiment: NCI-60 cytotoxicity screen; type: cell-based; settings: Homo sapiens, NCI-60, 48 h, ovarian
Source text: as §1

KM12 = experiment: NCI-60 cytotoxicity screen; type: cell-based; settings: Homo sapiens, NCI-60, 48 h, colon
Source text: as §1

LOX IMVI = experiment: NCI-60 cytotoxicity screen; type: cell-based; settings: Homo sapiens, NCI-60, 48 h, melanoma
Source text: as §1

M14 = experiment: NCI-60 cytotoxicity screen; type: cell-based; settings: Homo sapiens, NCI-60, 48 h, melanoma
Source text: as §1

MCF-7 = experiment: NCI-60 cytotoxicity screen; type: cell-based; settings: Homo sapiens, MCF7; NCI-60, 48 h, breast
Source text: as §1

MDA-MB-435 = experiment: NCI-60 cytotoxicity screen; type: cell-based; settings: Homo sapiens, NCI-60, 48 h, melanoma
Source text: as §1

NCI/ADR-RES = experiment: NCI-60 cytotoxicity screen; type: cell-based; settings: Homo sapiens, NCI-60, 48 h, ovarian
Source text: as §1

OVCAR-3 = experiment: NCI-60 cytotoxicity screen; type: cell-based; settings: Homo sapiens, NCI-60, 48 h, ovarian
Source text: as §1

OVCAR-4 = experiment: NCI-60 cytotoxicity screen; type: cell-based; settings: Homo sapiens, NCI-60, 48 h, ovarian
Source text: as §1

OVCAR-8 = experiment: NCI-60 cytotoxicity screen; type: cell-based; settings: Homo sapiens, NCI-60, 48 h, ovarian
Source text: as §1

PC-3 = experiment: NCI-60 cytotoxicity screen; type: cell-based; settings: Homo sapiens, NCI-60, 48 h, prostate
Source text: as §1

RPMI-8226 = experiment: NCI-60 cytotoxicity screen; type: cell-based; settings: Homo sapiens, NCI-60, 48 h, leukaemia
Source text: as §1

RXF 393 = experiment: NCI-60 cytotoxicity screen; type: cell-based; settings: Homo sapiens, NCI-60, 48 h, renal
Source text: as §1

SF-268 = experiment: NCI-60 cytotoxicity screen; type: cell-based; settings: Homo sapiens, NCI-60, 48 h, CNS
Source text: as §1

SF-295 = experiment: NCI-60 cytotoxicity screen; type: cell-based; settings: Homo sapiens, NCI-60, 48 h, CNS
Source text: as §1

SF-539 = experiment: NCI-60 cytotoxicity screen; type: cell-based; settings: Homo sapiens, NCI-60, 48 h, CNS
Source text: as §1

SK-MEL-28 = experiment: NCI-60 cytotoxicity screen; type: cell-based; settings: Homo sapiens, NCI-60, 48 h, melanoma
Source text: as §1

SK-MEL-2 = experiment: NCI-60 cytotoxicity screen; type: cell-based; settings: Homo sapiens, NCI-60, 48 h, melanoma
Source text: as §1

SK-MEL-5 = experiment: NCI-60 cytotoxicity screen; type: cell-based; settings: Homo sapiens, NCI-60, 48 h, melanoma
Source text: as §1

SN12C = experiment: NCI-60 cytotoxicity screen; type: cell-based; settings: Homo sapiens, NCI-60, 48 h, renal
Source text: as §1

SNB-19 = experiment: NCI-60 cytotoxicity screen; type: cell-based; settings: Homo sapiens, NCI-60, 48 h, CNS
Source text: as §1

SNB-75 = experiment: NCI-60 cytotoxicity screen; type: cell-based; settings: Homo sapiens, NCI-60, 48 h, CNS
Source text: as §1

SR = experiment: NCI-60 cytotoxicity screen; type: cell-based; settings: Homo sapiens, NCI-60, 48 h, leukaemia
Source text: as §1

SW620 = experiment: NCI-60 cytotoxicity screen; type: cell-based; settings: Homo sapiens, SW-620; NCI-60, 48 h, colon
Source text: as §1

U251 = experiment: NCI-60 cytotoxicity screen; type: cell-based; settings: Homo sapiens, U-251; NCI-60, 48 h, CNS
Source text: as §1

UACC-62 = experiment: NCI-60 cytotoxicity screen; type: cell-based; settings: Homo sapiens, NCI-60, 48 h, melanoma
Source text: as §1

UO-31 = experiment: NCI-60 cytotoxicity screen; type: cell-based; settings: Homo sapiens, NCI-60, 48 h, renal
Source text: as §1

C=C(CN1CCN(c2ccccc2C(F)(F)F)CC1)c1ccc(C(=O)Nc2ccccc2N)cc1 [Compound 3, N-(2-aminophenyl)-4–(3-(4–(2-(trifluoromethyl)phenyl)piperazin-1-yl)prop-1-en-2-yl)benzamide]
IC50 (HeLa nuclear KDACs; HeLa nuclear extract, up to 20 µM, read-out: HDAC Inhibition IC50): > 20 µM
IC20 (HeLa nuclear KDACs; concentration inhibiting HDAC activity by 20%, read-out: HDAC Inhibition IC20): 1.5 ± 0.8 µM
IC50 (786-0): 2.36 µM
IC50 (A549): 4.17 µM
IC50 (ACHN): 7.19 µM
IC50 (BT 549): 2.67 µM
IC50 (CAKI-1): 7.96 µM
IC50 (COLO205): 11.5 µM
IC50 (DU-145): 7.52 µM
IC50 (EKVX): 6.7 µM
IC50 (H23): 5.93 µM
IC50 (H460): 5.58 µM
IC50 (H522): 1.91 µM
IC50 (HCT116): 3.09 µM
IC50 (HCT15): 4.89 µM
IC50 (HL-60): 0.04 µM
IC50 (HOP-62): 4.76 µM
IC50 (HS 578 T): 12.8 µM
IC50 (IGROV-1): 6.03 µM
IC50 (KM12): 2.04 µM
IC50 (LOX IMVI): 5.86 µM
IC50 (M14): 4.47 µM
IC50 (MCF-7): 4.48 µM
IC50 (MDA-MB-435): 2.72 µM
IC50 (NCI/ADR-RES): 1.87 µM
IC50 (OVCAR-3): 5.92 µM
IC50 (OVCAR-4): 6.53 µM
IC50 (OVCAR-8): 3.84 µM
IC50 (PC-3): 1.91 µM
IC50 (RPMI-8226): 0.16 µM
IC50 (RXF 393): 1.67 µM
IC50 (SF-268): 4.55 µM
IC50 (SF-295): 5.97 µM
IC50 (SF-539): 3.27 µM
IC50 (SK-MEL-28): 10.3 µM
IC50 (SK-MEL-2): 10.3 µM
IC50 (SK-MEL-5): 3.01 µM
IC50 (SN12C): 6.43 µM
IC50 (SNB-19): 24.4 µM
IC50 (SNB-75): 2.82 µM
IC50 (SR): 2.36 µM
IC50 (SW620): 3.4 µM
IC50 (U251): 4.63 µM
IC50 (UACC-62): 9.16 µM
IC50 (UO-31): 1 µM
